Values quoted from earlier work, collected in article PMC12308805, “Ultrahigh-Throughput Virtual Screening Strategies against PPI Targets: A Case Study of STAT Inhibitors” (Journal of Chemical Information and Modeling, 2025).
Square brackets hold non-standard residues; d marks the D form. Peptide text beside a SMILES is read from it. * marks the point of attachment. βNA = c1ccc2cc(N*)ccc2c1

System: STAT3
Conditions: sheet 6QHD_actives_decoys; retrospective screening set for STAT3 SH2 domain (PDB 6QHD); […]; ref DUD-E; cited from earlier work
For `COc1cc(NS(=O)(=O)c2ccc(NC(=S)NC(=O)c3cc(Cl)cc(Cl)c3)cc2)ncn1` [Decoy392], the Type is listed as “Inactive (Decoy)”.
For `C[C@@H](O)CC(=O)SCCNC(=O)CCNC(=O)[C@@H](O)C(C)(C)CO[P@](=O)(O)O[P@](=O)(O)OC[C@H]1O[C@@H](n2cnc3c(N)ncnc32)[C@@H](O)[C@H]1OP(=O)(O)O` [Decoy404], the Type is given as “Inactive (Decoy)”.
For `Nn1c(SCC(=O)Nc2ccc(S(=O)(=O)Nc3nccs3)cc2)nnc1-c1ccncc1` [Decoy406], the Type is given as “Inactive (Decoy)”.
For `CCOC(=O)[C@@](NC(=O)Nc1ccc(S(=O)(=O)Nc2nnc(SCC)s2)cc1)(c1ccc(F)cc1)C(F)(F)F` [Decoy418], the Type is given as “Inactive (Decoy)”.
In the case of `O=C(CCC(=O)Nc1ccc(S(=O)(=O)Nc2nccs2)cc1)Nc1ccc(S(=O)(=O)Nc2nccs2)cc1` [Decoy422], the Type is listed as “Inactive (Decoy)”.
In the case of `COc1cc(NS(=O)(=O)c2ccc(NC(=O)CCCCC(=O)Nc3ccc(S(=O)(=O)/N=c4/cc(OC)nc(OC)[nH]4)cc3)cc2)nc(OC)n1` [Decoy429], the Type is given as “Inactive (Decoy)”.
For `COC1=C[C@]23CCCN2CCc2cc4c(cc2[C@@H]3[C@@H]1OC(=O)[C@@](O)(CCCC(C)(C)O)CC(=O)O)OCO4` [Decoy432], the Type is listed as “Inactive (Decoy)”.
In the case of `NCCCC[C@H](NC(=O)[C@@H](CC(=O)O)NC(=O)[C@@H](CC(=O)O)NC(=O)[C@@H](CC(=O)O)NC(=O)[C@@H](CC(=O)O)NC(=O)CN)C(=O)Nc1ccc2ccccc2c1` [Decoy438] (H-G[dD][dD][dD][dD]K-βNA), the Type is listed as “Inactive (Decoy)”.

Same assay, conditions: sheet 6QHD_actives_decoys; retrospective screening set for STAT3 SH2 domain (PDB 6QHD); decoys generated with DUD-E and presumed inactive, not tested; ref DUD-E; cited from earlier work
In the case of `COc1cc(NC(=O)COC(=O)c2cc(OC)c(OC)cc2NC(=O)c2ccco2)cc(OC)c1` [Decoy388], the Type is listed as “Inactive (Decoy)”.
For `[H]/N=C1/[C@@H](C)[C@@H](O)[C@@](C)(O)[C@@H](CC)OC(=O)[C@H](C)[C@H](O[C@@H]2C[C@@](C)(OC)[C@H](O)[C@H](C)O2)[C@@H](C)[C@H](O[C@H]2O[C@@H](C)C[C@@H](N(C)C)[C@H]2O)[C@@](C)(O)C[C@@H]1C` [Decoy389], the Type is given as “Inactive (Decoy)”.
For `Cc1n[nH]c2nc(SCC(=O)NCCc3ccc(S(N)(=O)=O)cc3)[n+](-c3ccc(Br)cc3)c(N)c12` [Decoy390], the Type is given as “Inactive (Decoy)”.
For `NS(=O)(=O)c1ccc(NC(=O)CSc2ccc(NC(=O)c3cccc([N+](=O)[O-])c3)cc2)cc1` [Decoy391], the Type is given as “Inactive (Decoy)”.
In the case of `COc1cc2cc(Oc3ccc(CCC(=O)O)c(O[C@@H]4O[C@H](CO)[C@@H](O)[C@H](O)[C@H]4O)c3)c(=O)oc2cc1O` [Decoy393], the Type is listed as “Inactive (Decoy)”.
In the case of `COC(=O)c1sc(NC(=O)c2ccc(C(=O)Nc3sc(C(=O)OC)c(C)c3C(=O)OC)cc2)c(C(=O)OC)c1C` [Decoy394], the Type is listed as “Inactive (Decoy)”.
For `CCOC(=O)C1=C(CNc2cc(S(=O)(=O)N(CC)CC)ccc2OC)NC(=O)N[C@H]1c1cc(C)ccc1C` [Decoy395], the Type is given as “Inactive (Decoy)”.
In the case of `COc1cc([C@@H]2OC[C@@]3(O)[C@@H](c4ccc(O[C@@H]5O[C@H](CO)[C@@H](O)[C@H](O)[C@H]5O)c(OC)c4)OC[C@@]23O)ccc1O` [Decoy396], the Type is given as “Inactive (Decoy)”.
For `O=C(O)c1[nH]nc(-c2ccc(O[C@H]3O[C@@H](CO)[C@@H](O)[C@@H](O)[C@H]3O)cc2O)c1-c1ccc2c(c1)OCCO2` [Decoy397], the Type is given as “Inactive (Decoy)”.
For `CCN(CC)S(=O)(=O)c1ccc(NC(=O)CSc2nnc(N/N=C/c3cccc(O)c3)n2N)cc1` [Decoy398], the Type is given as “Inactive (Decoy)”.
For `Cc1cc(C)nc(N/C(=N\C(=S)NCCCN2CCOCC2)Nc2ccc(Cn3cncn3)cc2)n1` [Decoy399], the Type is given as “Inactive (Decoy)”.
For `NC(=O)CN(CC(N)=O)c1ccc(F)cc1OCCOc1cc(F)ccc1N(CC(N)=O)CC(N)=O` [Decoy400], the Type is listed as “Inactive (Decoy)”.
In the case of `CCOC(=O)CNS(=O)(=O)c1cc(-c2nnc(Nc3ccc(OCC(=O)NC)cc3)c3ccccc23)ccc1C` [Decoy401], the Type is given as “Inactive (Decoy)”.
For `Nc1ncnc2c1ncn2[C@@H]1O[C@@H](CO[P@@](=O)(O)O[P@@](=O)(O)OC[C@H](O)[C@H](O)[C@H](O)C=O)[C@@H](O)[C@H]1O` [Decoy402], the Type is given as “Inactive (Decoy)”.
In the case of `Nc1ncnc2c1ncn2[C@H]1O[C@@H](CO[P@@](=O)(O)O[P@@](=O)(O)OC[C@H](O)[C@H](O)[C@H](O)C=O)[C@@H](O)[C@@H]1O` [Decoy403], the Type is listed as “Inactive (Decoy)”.
In the case of `CC(=O)N[C@@H]1[C@@H](OC(C)=O)[C@H](OC(C)=O)[C@@H](COC(C)=O)O[C@H]1Sc1nnc(COc2ccccc2C)n1C1CCCC1` [Decoy405], the Type is given as “Inactive (Decoy)”.
For `CC(=O)O[C@H]1[C@@H](O)[C@H](CO)O[C@H](O[C@@H](/C=N\C23CC4CC(CC(C4)C2)C3)[C@@H](CO)O[C@H](O)/C=N/C23CC4CC(CC(C4)C2)C3)[C@@H]1O` [Decoy407], the Type is listed as “Inactive (Decoy)”.
For `CC(=O)O[C@@H]1[C@@H](O)[C@@H](O[C@@H](/C=N\C23CN4CN(CN(C4)C2)C3)[C@@H](CO)O[C@H](O)/C=N/C23CN4CN(CN(C4)C2)C3)O[C@@H](CO)[C@H]1O` [Decoy408], the Type is given as “Inactive (Decoy)”.
For `CC1=C(/C(O)=N/c2ccc(S(N)(=O)=O)cc2)[C@H](c2ccco2)C(C#N)=C(SCC(=O)Nc2cccc(C(F)(F)F)c2)N1` [Decoy409], the Type is given as “Inactive (Decoy)”.
In the case of `CC(=O)O[C@@H]1[C@@H](O)[C@@H](O[C@@H](C/N=C/c2ccc(O)c3ccccc23)[C@@H](CO)O[C@H](O)C/N=C/c2ccc(O)c3ccccc23)O[C@@H](CO)[C@H]1O` [Decoy410], the Type is listed as “Inactive (Decoy)”.
In the case of `COc1c([C@@H]2OC[C@H](OC(C)=O)[C@@H](OC(C)=O)[C@H]2OC(C)=O)c(O)cc2oc(-c3ccc(O[C@H]4O[C@@H](CO)[C@@H](O)[C@@H](O)[C@H]4O)cc3)cc(=O)c12` [Decoy411], the Type is given as “Inactive (Decoy)”.
For `COc1ccc(N([C@@H](C)C(=O)Nc2ccc(S(=O)(=O)Nc3ccc(Cl)c(C(F)(F)F)c3)cc2)S(C)(=O)=O)cc1` [Decoy412], the Type is given as “Inactive (Decoy)”.
In the case of `CC(=O)OC[C@@H]1O[C@H](O)[C@H](OC(C)=O)[C@H](OC(C)=O)[C@@H]1O[C@@H]1O[C@H](COC(C)=O)[C@@H](O)[C@H](OC(C)=O)[C@@H]1OC(C)=O` [Decoy413], the Type is listed as “Inactive (Decoy)”.
In the case of `CCSc1nnc(/N=C(\O)CSc2n[nH]c(N/N=C/c3cn(C)nc3C)n2)s1` [Decoy414], the Type is listed as “Inactive (Decoy)”.
In the case of `CCCCn1nc(NC(=O)c2cc(OCC)c(OCC)c(OCC)c2)c2cc3cc(C)ccc3nc21` [Decoy415], the Type is listed as “Inactive (Decoy)”.
For `CCN(CC)CCCNC(=S)N(CCN1CCOCC1)Cc1cc2cc3c(cc2[nH]c1=O)OCCO3` [Decoy416], the Type is listed as “Inactive (Decoy)”.
In the case of `CC(C)(CC(=O)O)CC(=O)N1Cc2nc[nH]c2C[C@H]1c1nc(-c2ccc(F)c(Cl)c2)no1` [Decoy417], the Type is listed as “Inactive (Decoy)”.
For `CCCCCCCCCC(=O)O[C@H]1[C@@H](O[C@@]2(CO)O[C@@H](CO)[C@@H](O)[C@H]2O)O[C@@H](CO)[C@@H](OC(=O)C(C)C)[C@@H]1OC(=O)C(C)C` [Decoy419], the Type is listed as “Inactive (Decoy)”.
In the case of `CCCCCCCCCC(=O)O[C@@H]1[C@@H](O[C@@]2(CO)O[C@@H](CO)[C@@H](O)[C@H]2O)O[C@@H](CO)[C@@H](OC(=O)C(C)C)[C@H]1OC(=O)C(C)C` [Decoy420], the Type is given as “Inactive (Decoy)”.
In the case of `O=C(CCSc1n[nH]c(N/N=C/c2cccc(Br)c2)n1)Nc1ccccc1[N+](=O)[O-]` [Decoy421], the Type is given as “Inactive (Decoy)”.
In the case of `CCCCCOc1ccc([C@@H]2C(C(=O)c3c(C)nc4ccccn34)=C(O)C(=O)N2CCN(C)C)cc1OCC` [Decoy423], the Type is given as “Inactive (Decoy)”.
For `Cc1ccc(S(=O)(=O)OC[C@H](OS(=O)(=O)c2ccc(C)cc2)[C@H](O)[C@H](O)[C@@H](COS(=O)(=O)c2ccc(C)cc2)OS(=O)(=O)c2ccc(C)cc2)cc1` [Decoy424], the Type is given as “Inactive (Decoy)”.
In the case of `CC(=O)O[C@H]([C@H](OC(C)=O)[C@H](OC(C)=O)C(=O)NC1CCCCCC1)[C@H](OC(C)=O)C(=O)NC1CCCCCC1` [Decoy425], the Type is given as “Inactive (Decoy)”.
In the case of `CC(=O)O[C@H]([C@@H](OC(C)=O)[C@H](OC(C)=O)C(=O)NC1CCCCCC1)[C@H](OC(C)=O)C(=O)NC1CCCCCC1` [Decoy426], the Type is given as “Inactive (Decoy)”.
In the case of `COC(=O)c1sc(NC(=O)CCCS(=O)(=O)c2nc(-c3ccccc3OC)cc(C(F)(F)F)n2)c(C(N)=O)c1C` [Decoy427], the Type is listed as “Inactive (Decoy)”.
For `O=c1c(-c2ccc(O[C@@H]3O[C@H](CO)[C@@H](O)[C@H](O)[C@H]3O)cc2)coc2c(CN3CCCC3)c(O)c(CN3CCCC3)c(O)c12` [Decoy428], the Type is given as “Inactive (Decoy)”.
In the case of `Cc1ccc(N(C[C@H](O)[C@@H](O)[C@H](O)CO)/N=N/c2cccc(S(=O)(=O)O)c2)cc1C` [Decoy430], the Type is given as “Inactive (Decoy)”.
In the case of `CCN[C@@H](c1ccc(I)cc1)c1ccc(OC)c(Br)c1` [Decoy431], the Type is listed as “Inactive (Decoy)”.
In the case of `COc1cc(/C=N/NC(=O)CCCCC(=O)N/N=C/c2cc(Br)c(O)c(OC)c2)cc(Br)c1O` [Decoy433], the Type is given as “Inactive (Decoy)”.
In the case of `CCCCCOc1ccc([C@H]2C(C(=O)c3ccc4c(c3)OCCO4)=C(O)C(=O)N2CCCN2CCOCC2)cc1OCC` [Decoy434], the Type is listed as “Inactive (Decoy)”.
For `COC(=O)c1ccc(NC(=O)CSc2nc3ccc(NC(=O)CSc4nnc(-c5ccc(N)cc5)n4C)cc3s2)cc1` [Decoy435], the Type is listed as “Inactive (Decoy)”.
In the case of `CCCC(=O)C1=C(N2CCN(C3=C(C(=O)CCC)C(O)=C(C(=O)OC)C(C)(C)C3)CC2)CC(C)(C)[C@H](C(=O)OC)C1=O` [Decoy436], the Type is given as “Inactive (Decoy)”.
For `CCOC(=O)c1c(NC(=O)CSc2n[nH]c(N/N=C/c3ccc(F)cc3)n2)sc2c1CCCC2` [Decoy437], the Type is given as “Inactive (Decoy)”.
In the case of `Nn1c(N/N=C/c2c(O)ccc3ccccc23)nnc1SCCC(=O)Nc1ccc2c(c1)C(=O)NC2=O` [Decoy439], the Type is given as “Inactive (Decoy)”.
For `O=C(CCCCCNC(=O)CCCC[C@H]1SC[C@H]2NC(=O)N[C@@H]21)NC/C=C/c1cn([C@@H]2O[C@@H](CO[P@](=O)(O)O[P@](=O)(O)OP(=O)(O)O)[C@@H](O)[C@H]2O)c(=O)nc1O` [Decoy440], the Type is listed as “Inactive (Decoy)”.
For `Nn1c(N/N=C/c2ccc([N+](=O)[O-])cc2)nnc1SCC(=O)Nc1ccc(OC(F)(F)F)cc1` [Decoy441], the Type is given as “Inactive (Decoy)”.
For `CC(=O)O[C@H]1[C@@H](O)[C@H](CO)O[C@H](O[C@@H](C/N=C/c2c(O)ccc3ccccc23)[C@@H](CO)O[C@H](O)C/N=C/c2c(O)ccc3ccccc23)[C@@H]1O` [Decoy442], the Type is given as “Inactive (Decoy)”.
